Results reported in patent publication US10188758B2, “Organic compounds” (INTRA-CELLULAR THERAPIES, INC., priority 2015, dated 2019).
Entries after “also recorded” stand apart in the source; their conditions may differ.

Columns and labels:
[1] = molecular target: human SERT (Homo sapiens (Human), UniProt P31645); test: Novascreen Serotonin, Transporter SERT (h) binding, platelets, [3H]Citalopram, N-Methyl
From the text: (§1) The NET and SERT binding may be assayed to determine if the compounds of the disclosure specifically bind to NET or SERT. An exemplary procedure for assaying NET binding may be found in Raisman et al., Eur. Jrnl. Pharmacol. (1982) 78:345-351 and in Langer et al., Eur. Jrnl. Pharmac. (1981) 72:423. An exemplary procedure for assaying SERT binding may be found in D'Amato et al., Jrnl. Pharmcacol. & Exp. Ther. (1987) 242:364-371 and in Brown et al., Eur. Jrnl. Pharmac. (1986) 123:161-165. The contents of each of these references are incorporated by reference in their entirety.
(§2) The binding affinity of the compounds of the current disclosure is measured using a Novascreen against rodent NET, human NET and human SERT. Duloxetine is used as a positive control. Details of the Novascreen may be found in the following: • http://www.perkinelmer.com/Catalog/Product/ID/100-0123, • http://www.perkinelmer.com/Catalog/Product/ID/100-0048, • http://www.perkinelmer.com/Catalog/Product/ID/100-0146, and • http://www.perkinelmer.com/Catalog/Product/ID/100-0099.
For the binding affinity of the compounds of the current disclosure for SERT, the following paramenters are used: • Assay Name: Serotonin, Transporter SERT (h) • Assay Type: Binding • Species: Human • Origin: Platelets • Ligand: [3H]Citalopram, N-Methyl • Ligand [M]: 7.00E-10 • Kd (Binding Affinity): 2.50E-09 • Bmax: 425 fmol/mg protein • Method: Radioactivity • Measurement: DPM

[2] = molecular target: human NET (Homo sapiens (Human), UniProt P23975); test: Novascreen Norepinephrine, Transporter NET (h) binding, recombinant CHO cells, [3H]-Nisoxetine
Chain of human NET (P23975 whole entry): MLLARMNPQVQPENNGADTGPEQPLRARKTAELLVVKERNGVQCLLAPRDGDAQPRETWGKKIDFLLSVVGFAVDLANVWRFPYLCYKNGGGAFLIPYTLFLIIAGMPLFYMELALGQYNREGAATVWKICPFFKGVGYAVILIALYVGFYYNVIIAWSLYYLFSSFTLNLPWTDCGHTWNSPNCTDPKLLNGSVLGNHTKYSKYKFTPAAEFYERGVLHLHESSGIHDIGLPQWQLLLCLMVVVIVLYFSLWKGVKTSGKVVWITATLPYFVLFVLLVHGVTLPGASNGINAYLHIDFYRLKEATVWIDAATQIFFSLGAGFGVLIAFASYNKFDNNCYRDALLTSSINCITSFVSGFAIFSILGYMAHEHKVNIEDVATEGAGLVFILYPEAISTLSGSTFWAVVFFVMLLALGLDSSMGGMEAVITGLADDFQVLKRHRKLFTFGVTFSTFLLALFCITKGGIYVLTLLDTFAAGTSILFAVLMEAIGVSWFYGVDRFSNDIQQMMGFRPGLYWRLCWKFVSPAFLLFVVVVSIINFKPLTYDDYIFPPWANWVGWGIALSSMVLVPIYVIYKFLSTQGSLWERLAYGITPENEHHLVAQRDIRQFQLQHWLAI
From the text: as §1, §2
For the binding affinity of the compounds of the current disclosure against NET, the following paramenters are used: • Assay Type: Binding • Species: Rat • Origin: Forebrain • Ligand: [3H]-Nisoxetine • Ligand [M]: 1.00E-09 • Kd (Binding Affinity): 9.00E-10 • Bmax: 10.5 fmol/mg tissue (wet weight) • Method: Radioactivity • Measurement: DPM • Assay Name: Norepinephrine, Transporter NET (h) • Assay Type: Binding • Species: Human • Origin: Recombinant/CHO cells • Ligand: [3H]-Nisoxetine • Ligand [M]: 1.00E-09 • Kd (Binding Affinity): 3.00E-09 • Bmax: 10 pmol/mg protein • Method: Radioactivity • Measurement: DPM

[3] = test system: naloxone-induced flush; test: Morphine-dependent rat model of hot flashes (naloxone-induced flush, tail skin temperature); format: in vivo; settings: 30 mg/kg p.o., FIG. 1
From the text: Morphine-dependent Rat Model: The effectiveness of the compounds of the present disclosure to reduce hot flashes may be evaluated by measuring its ability to reduce morphine-induced rise in TST. Ovariectomized rats may be subcutaneously injected with a vehicle (sterile water) once daily for 8 days. On day-4, two tablets of slow-release morphine may be implanted subcutaneously in the dorsal scapular region of the rats to induce morphine dependence. On day-5 and -6, morphine withdrawal may be induced by subcutaneous administration of 1.0 mg/Kg of naloxone, a general opioid antagonist. […] Ketamine (40 mg/Kg) may be injected after test compound to induce sedation so as to avoid temperature fluctuation due to stress associated with restriction of their movement and attachment of thermistor probe to the their tails. All drug- related effects may be compared to a vehicle control group which also receives ketamine. TST may be monitored continuously for 35 minutes. The average TST measured 25, 30 and 35 minutes prior to naloxone injection may be used to establish a baseline temperature. Hot flash reduction may be determined by evaluating the statistical differences between the baseline temperature and 15 minutes after naloxone treatment when the change in TST may be observed to be maximum.

Chain of human SERT (P31645 whole entry): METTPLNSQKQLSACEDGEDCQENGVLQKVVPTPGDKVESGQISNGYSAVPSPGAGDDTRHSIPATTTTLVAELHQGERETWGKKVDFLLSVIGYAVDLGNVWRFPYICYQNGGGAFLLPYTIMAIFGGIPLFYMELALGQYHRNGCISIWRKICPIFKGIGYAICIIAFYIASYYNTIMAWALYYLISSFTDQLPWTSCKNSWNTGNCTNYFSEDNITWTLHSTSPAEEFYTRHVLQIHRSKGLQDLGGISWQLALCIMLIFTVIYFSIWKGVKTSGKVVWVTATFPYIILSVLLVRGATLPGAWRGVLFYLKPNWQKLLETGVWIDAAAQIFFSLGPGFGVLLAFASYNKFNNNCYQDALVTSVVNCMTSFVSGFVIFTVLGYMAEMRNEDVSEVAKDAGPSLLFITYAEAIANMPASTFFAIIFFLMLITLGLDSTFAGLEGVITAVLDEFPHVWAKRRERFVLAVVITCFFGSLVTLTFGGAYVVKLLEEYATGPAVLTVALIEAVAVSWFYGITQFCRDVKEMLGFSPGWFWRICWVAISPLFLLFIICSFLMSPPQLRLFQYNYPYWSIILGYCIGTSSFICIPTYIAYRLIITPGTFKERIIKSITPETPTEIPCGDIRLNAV

Row | Compound | Ki [1] [nM] | Ki [2] [nM] | reduction of naloxone-induced flush [3]
1 | CCOc1ncccc1O[C@H](CCNC)c1ccccc1 [Example 3, (R)-3-(2-Ethoxypyridin-3-yloxy)-N-methyl-3-phenylpropan-1-amine] | 318 | 4.2 | effective in reducing naloxone-induced flush; also recorded: effective in reducing naloxone-inducted flush
2 | CCOc1ncccc1O[C@H](CCN)c1ccccc1 [Example 2, (R)-3-Phenyl-3-(2-ethoxypyridin-3-yloxy)propan-1-amine] | – | 69 | –
3 | CCNCC[C@@H](Oc1cccnc1OCC)c1ccccc1 [Compound 5, (R)-3-(2-ethoxypyridin-3-yloxy)-N-ethyl-3-phenylpropan-1-amine] | 579 | 37.3 | –
4 | CNCC[C@@H](Oc1cccnc1OCCO)c1ccccc1 [Example 1, (R)-2-(3-(3-(Methylamino)-1-phenylpropoxy)pyridin-2-yloxy)ethanol] | – | 39 | –
5 | CCNCC[C@@H](Oc1cccnc1OC)c1ccccc1 [Compound 4, (R)-N-ethyl-3-(2-methoxypyridin-3-yloxy)-3-phenylpropan-1-amine] | 240 | 81.4 | –
